Measured values reported in ChEMBL document CHEMBL4311957, “Recent advances in natural antifungal flavonoids and their derivatives” (Bioorg Med Chem Lett, 2019).
In brackets after ≈: the same amount, converted by molar mass. One block for each molecule: values may come before it.

What was measured:
Nakaseomyces glabratus [1] = experiment: Antifungal activity against Candida glabrata 482 by microdilution method; assay type: functional
Candida albicans [2] = experiment: Antifungal activity against Candida albicans 498 by microdilution method; assay type: functional
Candida tropicalis [3] = experiment: Antifungal activity against FLC-resistant Candida tropicalis; assay type: functional
Candida albicans [4] = experiment: Antifungal activity against Candida albicans 501 by microdilution method; assay type: functional
Candida tropicalis [5] = experiment: Antifungal activity against FLC-resistant Candida tropicalis in presence of FLC; assay type: functional
Nakaseomyces glabratus [6] = experiment: Antifungal activity against Candida glabrata 587 by microdilution method; assay type: functional
Candida albicans [7] = experiment: Antifungal activity against Candida albicans ATCC 10231 by microdilution method; assay type: functional
Candida parapsilosis [8] = experiment: Antifungal activity against Candida parapsilosis 96 by microdilution method; assay type: functional; settings: Lodderomyces parapsilosis
Trichophyton rubrum [9] = experiment: Antifungal activity against Trichophyton rubrum ATCC MYA3108 by CLSI-based microdilution method; assay type: functional
Candida albicans [10] = experiment: Antifungal activity against Candida albicans 53 by microdilution method; assay type: functional
Nakaseomyces glabratus [11] = experiment: Antifungal activity against Candida glabrata 531 by microdilution method; assay type: functional
Cryptococcus neoformans [12] = experiment: Antifungal activity against Cryptococcus neoformans by CLSI-based microdilution method; assay type: functional
Trichophyton rubrum [13] = experiment: Antifungal activity against Trichophyton rubrum deltaTruMDR2 by CLSI-based microdilution method; assay type: functional
Nakaseomyces glabratus [14] = experiment: Antifungal activity against Candida glabrata 510 by microdilution method; assay type: functional
Nakaseomyces glabratus [15] = experiment: Antifungal activity against Candida glabrata 507 by microdilution method; assay type: functional
Candida tropicalis [16] = experiment: Antifungal activity against Candida tropicalis 166 by microdilution method; assay type: functional
Nakaseomyces glabratus [17] = experiment: Antifungal activity against Candida glabrata 493 by microdilution method; assay type: functional
Pichia kudriavzevii [18] = experiment: Antifungal activity against Candida krusei 168 by microdilution method; assay type: functional
Candida tropicalis [19] = experiment: Antibiofilm activity against Candida tropicalis by CSLM based method; assay type: functional
Nakaseomyces glabratus [20] = experiment: Antifungal activity against Candida glabrata WT-5; assay type: functional
Nakaseomyces glabratus [21] = experiment: Antifungal activity against Candida glabrata ATCC 90030; assay type: functional
Pichia kudriavzevii [22] = experiment: Antifungal activity against Candida krusei; assay type: functional
Nakaseomyces glabratus [23] = experiment: Antifungal activity against Candida glabrata; assay type: functional
Candida albicans [24] = experiment: Antifungal activity against Candida albicans NBRC 1385 by microdilution method; assay type: functional
Candida albicans [25] = experiment: Antibiofilm activity against Candida albicans by CSLM based method; assay type: functional
Pichia kudriavzevii [26] = experiment: Antifungal activity against Candida krusei ATCC 6258; assay type: functional
[27] = tested on: Trichophyton mentagrophytes; experiment: Antifungal activity against Trichophyton mentagrophytes IFM 46027 by microdilution method; assay type: functional
Pichia kudriavzevii [28] = experiment: Antifungal activity against Candida krusei CK25; assay type: functional
Candida albicans [29] = experiment: Antifungal activity against Candida albicans; assay type: functional, organism-based
Candida parapsilosis [30] = experiment: Antifungal activity against Candida parapsilosis ATCC 22014; assay type: functional; settings: Lodderomyces parapsilosis
Aspergillus fumigatus [31] = experiment: Antifungal activity against Aspergillus fumigatus NBRC 4400 by microdilution method; assay type: functional
Candida parapsilosis [32] = experiment: Antifungal activity against Candida parapsilosis; assay type: functional; settings: Lodderomyces parapsilosis
Candida albicans [33] = experiment: Antifungal activity against FLC-resistant Candida albicans; assay type: functional
Trichophyton rubrum [34] = experiment: Antifungal activity against Trichophyton rubrum NBRC 5467 by microdilution method; assay type: functional
Candida parapsilosis [35] = experiment: Antifungal activity against Candida parapsilosis 90/2224; assay type: functional; settings: Lodderomyces parapsilosis
Candida albicans [36] = experiment: Synergistic antifungal activity against Candida albicans after 24 hrs in presence of Miconazole by checkerboard method; assay type: functional, organism-based
Cryptococcus neoformans [37] = experiment: Fungicidal activity against Cryptococcus neoformans clinical isolate after 48 hrs; assay type: functional
Cryptococcus neoformans [38] = experiment: Fungicidal activity against Cryptococcus neoformans ATCC 32264 after 48 hrs; assay type: functional; settings: ATCC 32264, 48 h
Aspergillus niger = experiment: Fungicidal activity against Aspergillus niger ATCC 9029 after 48 hrs; assay type: functional; settings: ATCC 9029, 48 h
[39] = tested on: Trichophyton mentagrophytes; experiment: Fungicidal activity against Trichophyton mentagrophytes ATCC 9972 after 48 hrs; assay type: functional; settings: ATCC 9972, 48 h
Aspergillus flavus = experiment: Fungicidal activity against Aspergillus flavus ATCC 9170 after 48 hrs; assay type: functional; settings: ATCC 9170, 48 h
Candida albicans [40] = experiment: Fungicidal activity against Candida albicans ATCC 10231 after 48 hrs; assay type: functional; settings: ATCC 10231, 48 h
Aspergillus fumigatus [41] = experiment: Fungicidal activity against Aspergillus fumigatus ATTC 26934 after 48 hrs; assay type: functional; settings: ATTC 26934, 48 h
Nannizzia gypsea = experiment: Fungicidal activity against Microsporum gypseum CCC 115 after 48 hrs; assay type: functional; settings: CCC 115, 48 h
Saccharomyces cerevisiae = experiment: Fungicidal activity against Saccharomyces cerevisiae ATCC 9763 after 48 hrs; assay type: functional; settings: ATCC 9763, 48 h
Trichophyton rubrum [42] = experiment: Fungicidal activity against Trichophyton rubrum CCC 110 after 48 hrs; assay type: functional; settings: CCC 110, 48 h

Structure (SMILES): O=c1c(O)c(-c2ccc(O)c(O)c2)oc2cc(O)cc(O)c12 [QUERCETIN]
MIC (Nakaseomyces glabratus [1]): 7.8 to 15.8 µg/mL (≈ 25.8 to 52.3 µM)
MIC (Candida albicans [2]): > 83 µg/mL
MIC (Candida tropicalis [3]): ≤ 0.5 µg/mL
MIC (Candida albicans [4]): > 83 µg/mL
MIC (Candida tropicalis [5]): 16 µg/mL
MIC (Nakaseomyces glabratus [6]): 7.8 to 15.8 µg/mL (≈ 25.8 to 52.3 µM)
MIC (Candida albicans [7]): > 83 µg/mL
MIC (Candida parapsilosis [8]): > 83 µg/mL
MIC (Trichophyton rubrum [9]): 125 µg/mL (≈ 414 µM)
MIC (Candida albicans [10]): > 83 µg/mL
MIC (Nakaseomyces glabratus [11]): 7.8 to 15.8 µg/mL (≈ 25.8 to 52.3 µM)
MIC (Cryptococcus neoformans [12]): > 125 µg/mL
MIC (Trichophyton rubrum [13]): 125 µg/mL (≈ 414 µM)
MIC (Nakaseomyces glabratus [14]): 7.8 to 15.8 µg/mL (≈ 25.8 to 52.3 µM)
MIC (Nakaseomyces glabratus [15]): 7.8 to 15.8 µg/mL (≈ 25.8 to 52.3 µM)
MIC (Candida tropicalis [16]): > 83 µg/mL
MIC (Nakaseomyces glabratus [17]): 7.8 to 15.8 µg/mL (≈ 25.8 to 52.3 µM)
MIC (Pichia kudriavzevii [18]): > 83 µg/mL

Structure (SMILES): O=c1cc(-c2ccccc2)oc2cc(O)c(O)c(O)c12 [BAICALEIN]
MIC (Nakaseomyces glabratus [1]): 1.9 µg/mL (≈ 7.03 µM)
MIC (Candida albicans [2]): 10.4 µg/mL (≈ 38.5 µM)
MIC (Candida tropicalis [19]): 52 to 104 µg/mL (≈ 192 to 385 µM)
MIC (Nakaseomyces glabratus [20]): 52.7 µg/mL (≈ 195 µM)
MIC (Candida albicans [4]): 10.4 µg/mL (≈ 38.5 µM)
MIC (Nakaseomyces glabratus [21]): 52.7 µg/mL (≈ 195 µM)
MIC (Pichia kudriavzevii [22]): 2.7 µg/mL (≈ 9.99 µM)
MIC (Nakaseomyces glabratus [23]): 2.7 µg/mL (≈ 9.99 µM)
MIC (Candida albicans [24]): 30 µM (≈ 8.11 µg/mL)
MIC50 (Candida albicans [25]): 4 to 32 µg/mL (≈ 14.8 to 118 µM)
MIC (Pichia kudriavzevii [26]): 2.7 µg/mL (≈ 9.99 µM)
MIC (Nakaseomyces glabratus [6]): 1.9 µg/mL (≈ 7.03 µM)
MIC (Candida albicans [7]): 10.4 µg/mL (≈ 38.5 µM)
MIC [27]: 60 µM (≈ 16.2 µg/mL)
MIC (Pichia kudriavzevii [28]): 2.7 µg/mL (≈ 9.99 µM)
MIC (Candida parapsilosis [8]): 5.2 to 13 µg/mL (≈ 19.2 to 48.1 µM)
MIC50 (Candida parapsilosis [8]): 13 to 104 µg/mL (≈ 48.1 to 385 µM)
MIC (Candida albicans [10]): 10.4 µg/mL (≈ 38.5 µM)
MIC (Nakaseomyces glabratus [11]): 1.9 µg/mL (≈ 7.03 µM)
MIC (Candida albicans [29]): 5.4 µg/mL (≈ 20 µM)
MIC (Candida parapsilosis [30]): 5.4 µg/mL (≈ 20 µM)
MIC (Aspergillus fumigatus [31]): 230 µM (≈ 62.2 µg/mL)
MIC (Nakaseomyces glabratus [14]): 1.9 µg/mL (≈ 7.03 µM)
MIC (Candida parapsilosis [32]): 5.4 µg/mL (≈ 20 µM)
MIC (Nakaseomyces glabratus [15]): 1.9 µg/mL (≈ 7.03 µM)
MIC (Candida tropicalis [16]): 10.4 µg/mL (≈ 38.5 µM)
MIC50 (Candida tropicalis [16]): 13 to 104 µg/mL (≈ 48.1 to 385 µM)
MIC (Nakaseomyces glabratus [17]): 1.9 µg/mL (≈ 7.03 µM)
MIC (Candida albicans [33]): 13 to 26 µg/mL (≈ 48.1 to 96.2 µM)
MIC (Trichophyton rubrum [34]): 120 µM (≈ 32.4 µg/mL)
MIC (Candida parapsilosis [35]): 5.4 µg/mL (≈ 20 µM)
MIC (Pichia kudriavzevii [18]): 21 µg/mL (≈ 77.7 µM)

IC50 (Candida albicans [36]): 51.6 µg/mL
Structure (SMILES): COc1ccc(-c2cc(=O)c3c(O)cc(OC)cc3o2)cc1 [APIGENIN DIMETHYLETHER]

Structure (SMILES): Cc1ccc(C(=O)/C=C/c2ccc(O)c(OCCCN(C)C)c2)cc1
MFC (Cryptococcus neoformans [37]): 62.5 µg/mL (≈ 184 µM)
MFC (Cryptococcus neoformans [38]): 62.5 µg/mL (≈ 184 µM)
MFC (Aspergillus niger): 62.5 µg/mL (≈ 184 µM)
MFC [39]: 62.5 µg/mL (≈ 184 µM)
MFC (Aspergillus flavus): 62.5 µg/mL (≈ 184 µM)
MFC (Candida albicans [40]): 62.5 µg/mL (≈ 184 µM)
MFC (Aspergillus fumigatus [41]): 62.5 µg/mL (≈ 184 µM)
MFC (Nannizzia gypsea): 62.5 µg/mL (≈ 184 µM)
MFC (Saccharomyces cerevisiae): 62.5 µg/mL (≈ 184 µM)
MFC (Trichophyton rubrum [42]): 62.5 µg/mL (≈ 184 µM)
